Counter-ions that a name gives are not always drawn. Like-named read-outs stand apart in the source and are kept apart here.

The test system of data set [1] is dopaminergic (D2) receptors. The settings on record: state of the art; cited from earlier work.
Another data set has as its system rats. The note with it: state of the art; cited from earlier work.
For data set [2] the following is noted: state of the art; cited from earlier work.
Data set [3] concerns the target T1, sigma receptors (Rattus norvegicus, UniProt Q9R0C9).
T1 construct: (SKF 10,047/rat brain membranes); from tissue; host or cells: rat brain membranes
The data set is described as follows: Sigma binding, SKF 10,047/rat brain membranes (Table 1.B). The settings on record: rat brain membranes. As to the method:
(§1) Tests of binding to phencyclidine and dopamine D2 receptors were carried out to study the possible undesirable interactions of the compounds of the invention with these receptors. The ligands used are [^3 H]-TCP for phencyclidine and [^3 H]spiroperidol for dopamine.
(§2) The binding experiments are carried out with the sigma ligands (+)-[^3 H]-SKF10,047 and [^3 H]-TCP according to the technique described by Largent B. L. et al. in J. Pharmacol. Exp. Ther. 238, 1986, p 739-748, the principle of which is to place in competition the respective affinities of the product under study and that of a radioactive characteristic ligand for sigma receptors.
(§3) The technique consists in incubating solutions of suitable concentrations of the test products with standard samples of membranes loaded with the labeled ligand, and then in determining the radioactivity of the solution after filtration.
(§4) The results are processed so as to calculate the IC50 of the product under study, which represents the nanomolar concentration of solution capable of inhibiting 50% of the binding of the tritiated ligand to the sigma receptors of the membranes used.
(§5) The SKF 10,047 binding tests are performed with guinea pig or rat brain membranes, those with DTG and TCP are performed with rat brain membranes; the D2 binding tests are performed with guinea pig brain membranes.

Data set [4] has as its target sigma receptors. As to the kind of experiment: Sigma binding test with [3H]-DTG (Table 1.A). The settings on record: guinea pig. As to the method: as §1
(§6) Binding with the ligand [^3 H]-DTG is carried out according to the technique of Weber, E. M. et al., 1986, Proc. Natl. Acad. Sci., 83:8784-8788, and binding with the ligand [^3 H]spiroperidol is carried out according to the technique of Fields, J. Z., Reisine, R. D. and Yamamura, H. 1., Brain Res., 136,578 (1977).
as §3, §4, §5

Data set [5] deals with convulsions induced by electric shocks in rats. As to the kind of experiment: Protection against convulsions induced by electric shocks in rats. The class given is in vivo, rat (male Sprague Dawley). The settings on record: sc, 0.5 h; rat; subcutaneous; shock 30 minutes after injection; protection in 50% of the animals. As to the method: (§7) Moreover, "in vivo" tests enabled the capacity of the compounds of the invention (I) to inhibit convulsions induced by electric shocks in rats, and also their capacity to inhibit gastroduodenal ulcers caused by administration of cysteamine, to be detected.
a) Convulsions in rats: electric shock
The psychotropic properties of the compounds (I) were determined by the protection against convulsions induced by electric shocks in rats.
The emission of an electric shock causes a convulsive state in the animal, characterized by the convulsive extension of front and rear legs.
In practice, the study is carried out on groups of 10 male Sprague Dawley rats weighing approximately 100 grams, to which the product under study is administered subcutaneously in aqueous solution on the basis of 0.5 ml per 100 grams of the animal's body weight.
An electric shock is then produced 30 minutes after the injection by means of a UGO BASILE ECT UNIT 7801 electric shock apparatus (APELEX): frequency 50 cps/sec, pulse width 0.6 ms, shock duration 1 sec, intensity 90 mA. […] Each animal then receives a score, which is equal to 1 for the presence of tonic convulsions and zero for the absence of tonic convulsions. […] The results are compared statistically between the control group and the treated group by the test of Fisher R. A. and Yates F. (Biometrika, 1948, 35-149) and the ED50 (dose of the test compound giving rise to protection in 50% of the animals) is calculated by the method of Litchfield J. T. and Wilcoxon F. (J. Pharmacol. Exp. Therap., 1949, 96-99).

In data set [6] the target is phencyclidine (PCP) receptors. The data set is described as follows: PCP receptor binding test with [3H]-TCP (Table 1.A). The settings on record: guinea pig. On the procedure:
as §1, §2, §3, §4, §5

The target of another data set is T2, dopamine D2 receptors (Rattus norvegicus, UniProt P61169).
T2 construct: from tissue; guinea pig by b443
As to the kind of experiment: Dopamine D2 binding test with [3H]spiroperidol (Table 1.A). On the procedure: as §1, §6, §3, §4, §5

Data set [7] addresses T3, sigma receptors (Cavia porcellus, UniProt Q60492).
T3 construct: from tissue; host or cells: guinea pig brain membranes
As to the kind of experiment: Sigma binding test with (+)-[3H]-SKF10,047, guinea pig brain membranes (Table 1.A). The note with it: read-out: SKF10047 guinea pig IC50. On the procedure:
as §1, §2, §3, §4, §5

For data set [8], the system named is cysteamine-induced ulcers. As to the kind of experiment: Inhibition of cysteamine-induced gastroduodenal ulcers in rats. In kind it is in vivo, rat (male Sprague Dawley). The settings on record: rat, 50% inhibition of ulceration, read-out: Cysteamine ulcer ED50.
Source text: as §7
b) Cysteamine-induced ulcer
The activity of the compounds of the invention with respect to the gastrointestinal tract was shown in rats by their capacity to inhibit gastroduodenal ulcers caused by administration of cysteamine. (Robert and al., Digestion, 1974, 11, 199-211).
In practice, the study is carried out according to the method described by Selye, H. and Szabo, S., Nature, 1973, 244:458-459 on groups of male Sprague Dawley rats weighing 200 g on average, to which a solution of cysteamine hydrochloride is administered by subcutaneous injection on the basis of 400 mg/kg, […] the ulcerogenic agent. Eighteen hours later, the rats are sacrificed by elongation, and the stomach and duodenum are removed, rinsed with physiological solution and pinned onto a card. The presence of ulcers of the antropyloroduodenal region is looked for, and their area, expressed in mm^2, is evaluated by multiplying the two principal perpendicular axes of the lesion. Statistical analysis of the results is carried out using Student's test for the ulcerated areas in comparison with a control group. The results are presented in Table 2, and expressed as an ED50 of ulceration scores, which are the effective doses of product in (mg/kg) for a 50% inhibition of the cysteamine-induced ulcers.

The nature of data set [9]: Stability remark on isolated product. The class given is physicochemical. The settings on record: free base, after Stage 3.
For data set [10], the system named is dopaminergic D2 receptors. The note with it: state of the art; cited from earlier work.
For data set [11], the system named is phencyclidine (PCP) receptors. The note with it: state of the art; cited from earlier work.

T1 sequence (Q9R0C9 whole entry): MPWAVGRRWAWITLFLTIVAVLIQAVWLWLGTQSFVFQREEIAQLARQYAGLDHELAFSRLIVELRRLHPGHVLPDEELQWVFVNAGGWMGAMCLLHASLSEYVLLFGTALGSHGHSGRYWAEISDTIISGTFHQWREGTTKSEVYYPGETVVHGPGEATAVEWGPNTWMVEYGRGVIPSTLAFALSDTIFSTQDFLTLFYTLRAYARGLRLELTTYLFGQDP
T3 sequence (Q60492 whole entry): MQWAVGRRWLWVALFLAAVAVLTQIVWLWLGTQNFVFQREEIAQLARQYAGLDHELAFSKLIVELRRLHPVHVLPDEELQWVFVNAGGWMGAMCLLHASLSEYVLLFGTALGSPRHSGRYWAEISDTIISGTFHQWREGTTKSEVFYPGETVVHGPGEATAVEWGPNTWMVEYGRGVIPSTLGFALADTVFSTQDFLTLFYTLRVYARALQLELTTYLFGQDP
T2 sequence (P61169 whole entry): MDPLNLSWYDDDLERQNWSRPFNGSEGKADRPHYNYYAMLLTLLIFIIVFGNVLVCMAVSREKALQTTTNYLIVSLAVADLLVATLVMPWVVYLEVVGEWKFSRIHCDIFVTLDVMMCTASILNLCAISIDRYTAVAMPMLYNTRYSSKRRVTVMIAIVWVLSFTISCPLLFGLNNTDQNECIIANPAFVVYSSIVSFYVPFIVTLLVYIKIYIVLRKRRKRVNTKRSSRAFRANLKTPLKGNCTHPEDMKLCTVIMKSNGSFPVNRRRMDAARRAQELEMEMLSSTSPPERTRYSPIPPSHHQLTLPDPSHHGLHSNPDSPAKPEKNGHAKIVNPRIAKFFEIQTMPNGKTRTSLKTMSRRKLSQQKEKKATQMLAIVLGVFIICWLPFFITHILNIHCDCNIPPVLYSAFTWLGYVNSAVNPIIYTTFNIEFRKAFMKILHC

Regarding `CCCN1CCC[C@H](c2cccc(O)c2)C1` [(+)-3-PPP, (+)-3-(3-hydroxyphenyl)-N-(1-propyl)piperidine], the “affinity for dopaminergic (D2) receptors” value in data set [1] was “strong affinity for dopaminergic (D2) receptors”.
`Cc1ccccc1NC(=N)Nc1ccccc1C` [DTG, 1,3-di-o-tolylguanidine]: the symptoms in rats entry in the data set with rats is on record as “causes symptoms in rats similar to those of PCP”. The “crossing the blood-brain barrier” value in data set [2] is “difficulty in crossing the blood-brain barrier”.
In general, IC50 refers to the concentration that inhibits the measured activity by half. On to `CN(CCC1Cc2ccccc2C1=O)CC1CC1` (centres unmarked) [EXAMPLE 1, 2-[2-[(N-Cyclopropylmethyl-N-Methyl)Amino]Ethyl]-1-Oxo-1,2-Dihydroindene Hydrochloride], for which the IC50 on sigma receptors [3] came out at 10.7 nM.
The term ED50 denotes the dose that gives a 50% effect, or the effect in half of the subjects. In the case of `CN(CCC1CCc2ccccc2C1=O)CC1CC1` (centres unmarked) [EXAMPLE 2, 2-[2-[(N-Cyclopropylmethyl-N-Methyl)Amino]Ethyl]-1-Oxo-1,2,3,4-Tetrahydronaphthalene Hydrochloride], the IC50 at sigma receptors [3] is 19.4 nM; on sigma receptors [4], 52 nM; in data set [6], over 10000 nM; at dopamine D2 receptors, over 10000 nM; at sigma receptors [7], 12 nM. This compound registered an ED50 in [5] of 0.1 mg/kg.
In the case of `CN(CCC1CCc2ccccc2C1=O)CC1CCC1` (centres unmarked) [EXAMPLE 3, 2-[2-[(N-cyclobutylmethyl-N-methyl)amino]ethyl]-1-oxo-1,2,3,4-tetrahydronaphthalene], the IC50 on sigma receptors [3] is 11.1 nM; in [6] it was over 10000 nM; at dopamine D2 receptors, 1170 nM; at sigma receptors [7], 5.24 nM. In addition, the ED50 came out at 5.7 mg/kg in [8] (intraperitoneal route (ip)), 8.6 mg/kg in data set [8] (oral route (po)) and 0.9 mg/kg in [5].
For `CN(CCC1CC1)CCC1CCc2ccccc2C1=O` (centres unmarked) [EXAMPLE 4, 2-[2-[(N-Cyclopropylethyl-N-Methyl)Amino]Ethyl]-1-oxo-1,2,3,4-Tetrahydronaphthalene Hydrochloride], the IC50 is 10.6 nM on sigma receptors [3]; 56 nM on sigma receptors [4]; over 10000 nM in data set [6]; 1910 nM on dopamine D2 receptors; 2.83 nM at sigma receptors [7]. In addition, the ED50 turned out to be 15.6 mg/kg in data set [8] (oral route (po)) and 1 mg/kg in [5].
In turn, `CN(CCC1CCc2ccccc2C1=O)CC1CCCCC1` (centres unmarked) [EXAMPLE 5, 2-[2-[(N-Cyclohexylmethyl-N-Methyl)Amino]-Ethyl]-1-Oxo-1,2,3,4-Tetrahydronaphthalene Hydrochloride] returned an IC50 at sigma receptors [3] of 8.2 nM.
On the same count and under the same terms, as for `COc1ccc2c(c1)CCC(CCN(C)CC1CCCCC1)C2=O` (centres unmarked) [EXAMPLE 6, 2-[2-[(N-Cyclohexylmethyl-N-Methyl)Amino]-Ethyl]6-Methoxy-1-oxo-1,2,3,4-Tetrahydronaphthalene Hydrochloride], the figure is 8 nM.
For `O=C1c2ccccc2CCC1CCNC1CC1` (centres unmarked) [EXAMPLE 7, 2-[2-(N-Cyclopropylamino)Ethyl]-1-Oxo-1,2,3,4-Tetrahydronaphthalene], in data set [9], the stability result is “unstable”.
Regarding `CCCN(CCC1CCc2ccccc2C1=O)CC1CC1` (centres unmarked) [EXAMPLE 9, 2-[2-[(N-cyclopropylmethyl-N-propyl)amino]ethyl]-1-oxo-1,2,3,4-tetrahydronaphthalene], at sigma receptors [3], the IC50 amounted to 10.4 nM.
On sigma receptors [3], `CN(CCC1CCCc2ccccc2C1=O)CC1CC1` (centres unmarked) [EXAMPLE 10, 2-[2-[(N-Cyclopropylmethyl-N-Methyl)Amino]Ethyl]-1-Benzosuberone Hydrochloride] had an IC50 of 5.7 nM. For the same compound, the 50% effect level in data set [5] (ED50) was put at a dose of 1.6 mg/kg.
On sigma receptors [3], `CN(CCC1CCCc2ccccc2C1=O)CC1CCCCC1` (centres unmarked) [EXAMPLE 11, 2-[2-[(N-Cyclohexylmethyl-N-Methyl)Amino]-Ethyl]-1-Benzosuberone Hydrochloride] displayed an IC50 of 6.6 nM.
With `CN(CCC1CCc2ccccc2C12OCCO2)CC1CC1` (centres unmarked) [EXAMPLE 12, 2-[2-[(N-cyclopropylmethyl-N-methyl)amino]ethyl]-1-[spiro(cyclodioxyethyl)]-1,2,3,4-tetrahydro naphhtalene], at sigma receptors [3], the IC50 came out at 30.5 nM. Moreover, the ED50 in [8] (intraperitoneal route (ip)) was found to be 11.6 mg/kg; in data set [5], 1.7 mg/kg.
Compound `CN(CCC1CCc2ccccc2C1=NO)CC1CCC1` (centres unmarked) [EXAMPLE 13, 2-[2-[(N-Cyclobutylmethyl-N-Methyl)Amino]Ethyl]-1-Hydroxyimino-1,2,3,4Tetrahydronaphthalene] displayed an IC50 on sigma receptors [3] of 7.7 nM.
On sigma receptors [3], `CN(CCC1COc2ccccc2C1=O)CC1CC1` (centres unmarked) [EXAMPLE 14, 3-[2-[(N-Cyclopropylmethyl-N-Methyl)Amino]-Ethyl]4-Chromanone Hydrchloride] came in with an IC50 of 13.7 nM. In [5], this compound had an ED50 of 3.5 mg/kg.
`CN(CCC1COc2ccccc2C1=O)CC1CCCCC1` (centres unmarked) [EXAMPLE 15, 3-[2-[(N-cyclohexylmethyl-N-methyl)amino]ethyl]-4-chromanone] displayed an IC50 on sigma receptors [3] of 5.7 nM.
Still for that read-out and setting: as for `CN(CCC1COc2ccc(F)cc2C1=O)CC1CCCCC1` (centres unmarked) [EXAMPLE 16, 3-[2-[(N-Cyclohexylmethyl-N-Methyl)Amino]-Ethyl]-6-Fluoro-4-Chromanone Hydrochloride], the figure is 6.2 nM; as for `C=CCN(C)CCC1CCc2ccccc2C1=O` (centres unmarked) [EXAMPLE 17, 2-[2-[(N-Allyl-N-Methyl)Amino]Ethyl]-1-Oxo-1,2,3,4-Tetrahydronaphthalene Hydrochloride], 13.3 nM.
Consider `O=C(CCCN1CCC(O)(c2ccc(Cl)cc2)CC1)c1ccc(F)cc1` [Haloperidol, 4-[4-(p-chlorophenyl)-4-hydroxypiperidino]-4'-fluorobutyrophenone], for which the “affinity for dopaminergic (D2) receptors” value in data set [1] is “strong affinity for dopaminergic D2 receptors”. Also, the extrapyramidal disorders result in data set [10] is “can induce extrapyramidal disorders of the cataleptic type”.
Take `C=CCN1CCC2(C)c3cc(O)ccc3CC1C2C` (centres unmarked) [SKF 10047, N-allylnormetazocine]: the “affinity for phencyclidine (PCP) receptors” value in data set [11] is reported as “strong affinity for phencyclidine (PCP) receptors”.
Consider `C[C@H]1[C@H]2Cc3ccc(O)cc3[C@]1(C)CCN2CC1CC1` [cyclazocine], for which the “affinity for phencyclidine (PCP) receptors” value in data set [11] is “strong affinity for phencyclidine (PCP) receptors”.

(Values after US5326784A, “Cycloalkylalkylamines which are sigma-receptor ligands and their application in therapy” (Institut de Recherche Jouveinal, priority 1992, dated 1994).)
